Source: patent US4231928A, “Antibacterial agents” (priority 1979, dated 1980)
Where two headings read alike, the source gives them in different places.

What was measured:
[1] = test system: S. enteritidis; assay: Serial twofold agar dilution (Mueller-Hinton agar), S. enteritidis; type: cell-based; settings: Salmonella enterica, S. enteritidis A9531, Table 8, read-out: MIC
Experimental: (§1) The Minimum Inhibitory Concentrations (MIC) for sodium 6-[D-(-)-α-phenyl-α-(7-hydroxy-4-oxo-4H-pyrimido[1,2-b]pyridazin-3-ylcarboxamido)acetamido]penicillanate (BB-P598) and sulbenicillin were determined by the serial twofold agar dilution method using Steers' apparatus on Mueller-Hinton agar plates against 31 test organisms for the primary screening (Table 1) and also against 61 strains of Pseudomonas aeruginosa for the secondary evaluation (Table 2).
(§2) Minimum Inhibitory Concentrations (MIC) for sodium 6-[D-(-)-α-phenyl-α-(7-hydroxy-4-oxo-4H-pyrimido[1,2-b]pyridazin-3-ylcarboxamido)acetamido]pencillanate (BB-P598), sodium 6-[D-(-)-α-(4-hydroxyphenyl)-α-(7-hydroxy-4-oxo-4H-pyrimido[1,2-b]pyridazin-3-ylcarboxamido)acetamido]-penicillanate (BB-P642) and carbenicillin were determined by the serial twofold agar dilution method using Steers' apparatus on Mueller-Hinton agar plates against 31 tests organisms (Table 8) and also against 61 strains of Pseudomonas aeruginosa (Table 9). In terms of mean % relative activity compared with carbenicillin, compounds BB-B598 and BB-P642 were 856% and 1319% as active as carbenicillin against the 61 Pseudomonas strains of Table 9.

[2] = test system: Klebsiella sp.; assay: Serial twofold agar dilution (Mueller-Hinton agar), Klebsiella sp.; type: cell-based; settings: Klebsiella sp. A20452, Mueller-Hinton agar, Table 8, read-out: MIC
Experimental: as §1, §2

[3] = test system: E. coli; assay: Serial twofold agar dilution (Mueller-Hinton agar), E. coli; type: cell-based; settings: Escherichia coli
Experimental: as §1, §2

[4] = test system: Pseudomonas aeruginosa; assay: Serial twofold agar dilution (Mueller-Hinton agar), P. aeruginosa; type: cell-based; settings: for MIC: Pseudomonas aeruginosa
Experimental: as §1, §2

[5] = test system: E. cloacae; assay: Serial twofold agar dilution (Mueller-Hinton agar), E. cloacae; type: cell-based; settings: Enterobacter cloacae
Experimental: as §1, §2

[6] = test system: S. aureus; assay: Serial twofold agar dilution (Mueller-Hinton agar), S. aureus; type: cell-based; settings: Staphylococcus aureus
Experimental: as §1, §2

[7] = Mouse blood levels after subcutaneous administration; settings: in vivo, sc, 20 mg/kg
Experimental: Mouse blood levels of BB-[…] and BB-[…] were determined by subcutaneous administration of 20 mg/kg of the penicillin to groups of three mice. Blood samples collected from orbital sinuses were assayed by the paper disk agar-diffusion method on Sarcina lutea PC1 1001 plates.

[8] = test system: P. vulgaris; assay: Serial twofold agar dilution (Mueller-Hinton agar), P. vulgaris; type: cell-based; settings: Proteus vulgaris, P. vulgaris A9539, Table 8, read-out: MIC
Experimental: as §1, §2

[9] = test system: S. marcescens; assay: Serial twofold agar dilution (Mueller-Hinton agar), S. marcescens; type: cell-based; settings: Serratia marcescens, S. marcescens A20019, Table 8
Experimental: as §1, §2

[10] = test system: Pseudomonas sp.; assay: Serial twofold agar dilution (Mueller-Hinton agar), Pseudomonas sp.; type: cell-based; settings: Pseudomonas sp. A20358, Table 8, read-out: MIC
Experimental: as §1, §2

[11] = test system: K. pneumoniae; assay: Serial twofold agar dilution (Mueller-Hinton agar), K. pneumoniae; type: cell-based; settings: Klebsiella pneumoniae, K. pneumoniae A9977, Table 8, read-out: MIC
Experimental: as §1, §2

[12] = test system: P. mirabilis; assay: Serial twofold agar dilution (Mueller-Hinton agar), P. mirabilis; type: cell-based; settings: Proteus mirabilis
Experimental: as §1, §2

[13] = test system: P. morganii; assay: Serial twofold agar dilution (Mueller-Hinton agar), P. morganii; type: cell-based; settings: Morganella morganii, P. morganii A9553, Table 8, read-out: MIC
Experimental: as §1, §2

## CC1(C)S[C@@H]2[C@H](NC(=O)[C@H](NC(=O)c3cnc4ccc(O)nn4c3=O)c3ccc(O)cc3)C(=O)N2[C@H]1C(=O)O [BB-P642, Sodium 6-[D-(-)-α-(4-hydroxyphenyl)-α-(7-hydroxy-4-oxo-4H-pyrimido[1,2-b]pyridazin-3-ylcarboxamido)acetamido]-penicillanate]
[1]
  MIC: 3.1 µg/mL
[2]
  MIC: 12.5 µg/mL
[3]; E. coli A9635, Table 8, read-out: MIC
  MIC: 12.5 µg/mL
[3]; E. coli A9844, Table 8, read-out: MIC
  MIC: 3.1 µg/mL
[3]; E. coli A20366, Table 8, read-out: MIC
  MIC: > 100 µg/mL
[3]; E. coli A20520, Table 8, read-out: MIC
  MIC: 6.3 µg/mL
[3]; E. coli A20664, Table 8, read-out: MIC
  MIC: 1.6 µg/mL
[3]; E. coli A20732, Table 8, read-out: MIC
  MIC: 100 µg/mL
[3]; E. coli A20898, Table 8, read-out: MIC
  MIC: > 100 µg/mL
[3]; E. coli Juhl A15119, Table 8, read-out: MIC
  MIC: 6.3 µg/mL
[3]; E. coli NIHJ, Table 8, read-out: MIC
  MIC: 3.1 µg/mL
[4]; 61 strains of P. aeruginosa, Table 9
  Mean % relative activity compared with carbenicillin: 1319%
[4]; 61 strains of P. aeruginosa, Table 9, read-out: Geometric mean of MIC
  MIC: 2.27 µg/mL
[4]; A20229, Mueller-Hinton agar, Table 8, read-out: MIC
  MIC: 0.4 µg/mL
[4]; ATCC19660, Pa-14 ATCC 19660 A20325, Mueller-Hinton agar, Table 9, read-out: MIC
  MIC: 1.6 µg/mL
[4]; GN315, Pa-27 GN315 A21294, Mueller-Hinton agar, Table 9, read-out: MIC
  MIC: 0.8 µg/mL
[4]; GN4925, Pa-45 GN 4925, Mueller-Hinton agar, Table 9, read-out: MIC
  MIC: 3.1 µg/mL
[4]; P. aeruginosa A9843, Mueller-Hinton agar, Table 8, read-out: MIC
  MIC: 1.6 µg/mL
[4]; P. aeruginosa A9930, Mueller-Hinton agar, Table 8, read-out: MIC
  MIC: 1.6 µg/mL
[4]; P. aeruginosa A15150, Mueller-Hinton agar, Table 8, read-out: MIC
  MIC: 0.8 µg/mL
[4]; P. aeruginosa A20717, Mueller-Hinton agar, Table 8, read-out: MIC
  MIC: 3.1 µg/mL
[4]; Pa-2 V.A A9923, Mueller-Hinton agar, Table 9, read-out: MIC
  MIC: 1.6 µg/mL
[4]; Pa-3 1449 V.A A9930, Mueller-Hinton agar, Table 9, read-out: MIC
  MIC: 1.6 µg/mL
[4]; Pa-4 H9, D113 A21295, Mueller-Hinton agar, Table 9, read-out: MIC
  MIC: 3.1 µg/mL
[4]; Pa-5 M4865, K.C A15150, Mueller-Hinton agar, Table 9, read-out: MIC
  MIC: 1.6 µg/mL
[4]; Pa-6 No. 5 Levitan A15194, Mueller-Hinton agar, Table 9, read-out: MIC
  MIC: 12.5 µg/mL
[4]; Pa-10 A21479, Mueller-Hinton agar, Table 9, read-out: MIC
  MIC: > 100 µg/mL
[4]; Pa-11 A20616, Mueller-Hinton agar, Table 9, read-out: MIC
  MIC: 1.6 µg/mL
[4]; Pa-12 A20653, Mueller-Hinton agar, Table 9, read-out: MIC
  MIC: 1.6 µg/mL
[4]; Pa-15 A20717, Mueller-Hinton agar, Table 9, read-out: MIC
  MIC: 6.3 µg/mL
[4]; Pa-16 #130 A20718, Mueller-Hinton agar, Table 9, read-out: MIC
  MIC: 0.4 µg/mL
[4]; Pa-17 H6, D114, Mueller-Hinton agar, Table 9, read-out: MIC
  MIC: 3.1 µg/mL
[4]; Pa-18 H8, D121, Mueller-Hinton agar, Table 9, read-out: MIC
  MIC: 0.4 µg/mL
[4]; Pa-19 A20229, Mueller-Hinton agar, Table 9, read-out: MIC
  MIC: 0.8 µg/mL
[4]; Pa-20 A20325, Mueller-Hinton agar, Table 9, read-out: MIC
  MIC: 1.6 µg/mL
[4]; Pa-21 A20601, Mueller-Hinton agar, Table 9, read-out: MIC
  MIC: 1.6 µg/mL
[4]; Pa-23 A20741, Mueller-Hinton agar, Table 9, read-out: MIC
  MIC: 1.6 µg/mL
[4]; Pa-24 A20896, Mueller-Hinton agar, Table 9, read-out: MIC
  MIC: > 100 µg/mL
[4]; Pa-25 A20897, Mueller-Hinton agar, Table 9, read-out: MIC
  MIC: 1.6 µg/mL
[4]; Pa-26 PS32, Mueller-Hinton agar, Table 9, read-out: MIC
  MIC: 12.5 µg/mL
[4]; Pa-28 C.P.H. 10527/72, Mueller-Hinton agar, Table 9, read-out: MIC
  MIC: 1.6 µg/mL
[4]; Pa-29 D122, Mueller-Hinton agar, Table 9, read-out: MIC
  MIC: 1.6 µg/mL
[4]; Pa-30 A20600, Mueller-Hinton agar, Table 9, read-out: MIC
  MIC: 1.6 µg/mL
[4]; Pa-31 A20594, Mueller-Hinton agar, Table 9, read-out: MIC
  MIC: 0.4 µg/mL
[4]; Pa-32 A20595, Mueller-Hinton agar, Table 9, read-out: MIC
  MIC: 1.6 µg/mL
[4]; Pa-33 A20598, Mueller-Hinton agar, Table 9, read-out: MIC
  MIC: 0.8 µg/mL
[4]; Pa-34 A20603, Mueller-Hinton agar, Table 9, read-out: MIC
  MIC: 0.8 µg/mL
[4]; Pa-36, Mueller-Hinton agar, Table 9, read-out: MIC
  MIC: 0.8 µg/mL
[4]; Pa-37 A20130, Mueller-Hinton agar, Table 9, read-out: MIC
  MIC: 1.6 µg/mL
[4]; Pa-38 A20349, Mueller-Hinton agar, Table 9, read-out: MIC
  MIC: 6.3 µg/mL
[4]; Pa-39 A20641, Mueller-Hinton agar, Table 9, read-out: MIC
  MIC: 0.8 µg/mL
[4]; Pa-41 A21227, Mueller-Hinton agar, Table 9, read-out: MIC
  MIC: 1.6 µg/mL
[4]; Pa-42 A21229, Mueller-Hinton agar, Table 9, read-out: MIC
  MIC: 12.5 µg/mL
[4]; Pa-43 A21233, Mueller-Hinton agar, Table 9, read-out: MIC
  MIC: 1.6 µg/mL
[4]; Pa-44 A21274, Mueller-Hinton agar, Table 9, read-out: MIC
  MIC: 1.6 µg/mL
[4]; Pa-51 A9910, Mueller-Hinton agar, Table 9, read-out: MIC
  MIC: 1.6 µg/mL
[4]; Pa-52 A9926, Mueller-Hinton agar, Table 9, read-out: MIC
  MIC: 3.1 µg/mL
[4]; Pa-53 A20126, Mueller-Hinton agar, Table 9, read-out: MIC
  MIC: 1.6 µg/mL
[4]; Pa-54 A20128, Mueller-Hinton agar, Table 9, read-out: MIC
  MIC: 3.1 µg/mL
[4]; Pa-55 A20227, Mueller-Hinton agar, Table 9, read-out: MIC
  MIC: 3.1 µg/mL
[4]; Pa-56 A20228, Mueller-Hinton agar, Table 9, read-out: MIC
  MIC: 1.6 µg/mL
[4]; Pa-57 A20546, Mueller-Hinton agar, Table 9, read-out: MIC
  MIC: 1.6 µg/mL
[4]; Pa-58 A20557, Mueller-Hinton agar, Table 9, read-out: MIC
  MIC: 3.1 µg/mL
[4]; Pa-59 A20574, Mueller-Hinton agar, Table 9, read-out: MIC
  MIC: 0.8 µg/mL
[4]; Pa-60 A20602, Mueller-Hinton agar, Table 9, read-out: MIC
  MIC: 1.6 µg/mL
[4]; Pa-61 A20726, Mueller-Hinton agar, Table 9, read-out: MIC
  MIC: 3.1 µg/mL
[4]; Pa-62 A21213, Mueller-Hinton agar, Table 9, read-out: MIC
  MIC: > 100 µg/mL
[4]; Pa-64 A21336, Mueller-Hinton agar, Table 9, read-out: MIC
  MIC: 0.8 µg/mL
[4]; Pa-65 A21428, Mueller-Hinton agar, Table 9, read-out: MIC
  MIC: 1.6 µg/mL
[4]; Pa-66 A21434, Mueller-Hinton agar, Table 9, read-out: MIC
  MIC: 3.1 µg/mL
[4]; Pa-67 A21509, Mueller-Hinton agar, Table 9, read-out: MIC
  MIC: 3.1 µg/mL
[4]; Pa-68 A21510, Mueller-Hinton agar, Table 9, read-out: MIC
  MIC: 3.1 µg/mL
[4]; Pa-69 A21587, Mueller-Hinton agar, Table 9, read-out: MIC
  MIC: 3.1 µg/mL
[4]; Pa-70 K-PS102 (KR-102), Mueller-Hinton agar, Table 9, read-out: MIC
  MIC: 1.6 µg/mL
[5]; E. cloacae A9656, Table 8
  MIC: 25 µg/mL
[5]; E. cloacae A9657, Table 8
  MIC: 100 µg/mL
[5]; E. cloacae A9659, Table 8
  MIC: 25 µg/mL
[6]; S. aureus A15097, Table 8, read-out: MIC
  MIC: > 100 µg/mL
[6]; S. aureus A20239, Table 8, read-out: MIC
  MIC: 25 µg/mL
[6]; S. aureus A20240, Table 8, read-out: MIC
  MIC: 12.5 µg/mL
[6]; S. aureus A20701, Table 8, read-out: MIC
  MIC: > 100 µg/mL
[6]; S. aureus BX-1633 A9606, Table 8, read-out: MIC
  MIC: 25 µg/mL
[6]; S. aureus Smith A9537, Table 8, read-out: MIC
  MIC: 3.1 µg/mL
[7]
  concentration at 0.25 h: 18000 ng/mL
  concentration at 0.5 h: 13500 ng/mL
  concentration at 1 h: 5200 ng/mL
[8]
  MIC: 50 µg/mL
[9]
  MIC: > 100 µg/mL
[10]
  MIC: 0.4 µg/mL
[11]
  MIC: 6.3 µg/mL
[12]
  MIC: 3.1 µg/mL
[13]
  MIC: > 100 µg/mL
